Laboratory results taken from ChEMBL document CHEMBL1201862, “PubChem BioAssay data set” (2004).
The source made the active and inactive calls.

Assays:
[1] = target: T1, DNA dC->dU-editing enzyme APOBEC-3G (Homo sapiens, UniProt Q9HC16); assay: Dose Response confirmation of small molecule APOBEC3G DNA Deaminase Inhibitors via a fluorescence-based single-stranded DNA deaminase assay. [Related pubchem assays (depositor defined):AID493012, AID493028]; format: functional
[2] = tested on: HEK293; assay: EBV LMP1 TES2 canonical NF-kB signalling blockers – cell-based, HEK293, luciferase, cherry-pick, dose response (AID 588343); format: functional; conditions: Homo sapiens
[3] = target: T2, Carboxy-terminal domain RNA polymerase II polypeptide A small phosphatase 1 (Homo sapiens, UniProt Q9GZU7); assay: CTDSP1 inhibitors, concentration-response, biochemical, absorbance readout, ultra-high-throughput screen actives (AID 540297); format: functional
T2 sequence (Q9GZU7 whole entry): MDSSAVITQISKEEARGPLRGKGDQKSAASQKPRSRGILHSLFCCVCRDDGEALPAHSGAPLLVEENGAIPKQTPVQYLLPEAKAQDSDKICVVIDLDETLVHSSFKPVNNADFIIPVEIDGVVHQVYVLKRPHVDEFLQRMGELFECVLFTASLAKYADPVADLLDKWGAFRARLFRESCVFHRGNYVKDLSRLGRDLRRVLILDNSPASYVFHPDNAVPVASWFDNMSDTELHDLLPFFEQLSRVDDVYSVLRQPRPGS

[4] = target: T3, Caspase-6 (Homo sapiens, UniProt P55212); assay: inhibition of CASP6 peptide cleavage – biochemical, VEID-R110 fluorescence, cherry-pick, dose response (AID 720632)
T3 sequence (P55212 whole entry): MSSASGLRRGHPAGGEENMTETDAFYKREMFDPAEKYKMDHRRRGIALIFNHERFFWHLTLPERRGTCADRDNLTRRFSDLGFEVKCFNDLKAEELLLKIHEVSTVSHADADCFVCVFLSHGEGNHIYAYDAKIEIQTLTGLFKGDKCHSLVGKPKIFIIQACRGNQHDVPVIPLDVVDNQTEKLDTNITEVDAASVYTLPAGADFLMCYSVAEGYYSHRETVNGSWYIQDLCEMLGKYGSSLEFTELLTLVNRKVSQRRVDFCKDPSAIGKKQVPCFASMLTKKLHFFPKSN

[5] = target: Cytochrome P450 2C19 (Homo sapiens, UniProt P33261); assay: Cytochrome panel assay with activity outcomes. Panel member name: p450-cyp2c19 Compounds with AC50 equal or less than 10 uM are considered active; format: functional
[6] = target: T4, Cytochrome P450 2C9 (Homo sapiens, UniProt P11712)
[7] = A cytotoxicity screen of small molecule inhibitors of the PhoP region in Salmonella typhi identified in the primary screen. [Related pubchem assays: 1850, 1864, 1985 ]; format: functional
[8] = target: Cytochrome P450 3A4 (Homo sapiens, UniProt P08684);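 further: CYP3A4 tested as one member of a cytochrome P450 panel screen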
[9] = target: Glyceraldehyde-3-phosphate dehydrogenase (Homo sapiens, UniProt P04406)
[10] = target: T5, Cytochrome P450 1A2 (Homo sapiens, UniProt P05177);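 further: PubChem cytochrome P450 panel assay, CYP1A2 panel member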
T5 sequence (P05177 whole entry): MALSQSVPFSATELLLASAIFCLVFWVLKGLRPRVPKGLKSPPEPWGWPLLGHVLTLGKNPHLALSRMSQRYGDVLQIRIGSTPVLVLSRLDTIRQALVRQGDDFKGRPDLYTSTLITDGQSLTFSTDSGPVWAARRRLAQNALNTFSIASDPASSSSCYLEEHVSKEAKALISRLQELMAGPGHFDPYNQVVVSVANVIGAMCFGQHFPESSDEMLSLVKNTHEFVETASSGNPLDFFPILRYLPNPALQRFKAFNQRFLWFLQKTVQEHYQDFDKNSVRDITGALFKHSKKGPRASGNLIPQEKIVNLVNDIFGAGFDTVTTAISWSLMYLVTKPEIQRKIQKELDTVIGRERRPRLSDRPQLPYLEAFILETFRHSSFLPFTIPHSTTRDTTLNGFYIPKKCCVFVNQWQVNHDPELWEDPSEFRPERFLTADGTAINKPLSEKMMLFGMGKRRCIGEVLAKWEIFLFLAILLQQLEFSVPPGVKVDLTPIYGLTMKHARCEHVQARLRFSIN

[11] = target: T4, Cytochrome P450 2C9; remark: listed apart in the source
[12] = target: Prothrombin (Homo sapiens, UniProt P00734); assay: Thrombin 1536 HTS Dose Response Confirmation. [Related pubchem assays: 1046 (Thrombin 1536 HTS; hits were confirmed in this assay)]; format: functional
[13] = target: Induced myeloid leukemia cell differentiation protein Mcl-1 (Homo sapiens, UniProt Q07820); format: functional
[14] = target: DNA dC->dU-editing enzyme APOBEC-3A (Homo sapiens, UniProt P31941); assay: Dose Response confirmation of small molecule APOBEC3A DNA Deaminase Inhibitors via a fluorescence-based single-stranded DNA deaminase assay. [Related pubchem assays (depositor defined):AID493011, AID493024]; format: functional
[15] = target: T1, DNA dC->dU-editing enzyme APOBEC-3G; format: functional
[16] = loss of viability in HepG2 cells – cell-based, CellTiter-Glo, cherry-picked, cytotoxicity control for Shn3 inhibitor project, dose response (AID 624134); format: functional
[17] = reduction of Shn3 3'UTR-driven luciferase in osteoblasts – cell-based, Clone20 osteoblasts, firefly luciferase, cherry-picked, dose response (AID 624132); format: functional;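 further: firefly luciferase luminescence from reporter carrying the Shn3 3'UTR in osteoblasts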
[18] = non-specific 3'UTR reporter inhibition in Clone20-Shn3RL – cell-based, Renilla luciferase, cherry-picked, counter-screen for Shn3 inhibitor project, dose response (AID 624133); format: functional
[19] = OVCAR8 cell viability loss – plate reader, dry powder samples, PAX8 project, dose response (AID 743197); format: functional, cell-based; conditions: OVCAR-8
[20] = target: Paired box protein Pax-8 (Homo sapiens, UniProt Q06710); assay: PAX8 transcriptional activity inhibition in RMG-I – RMG-I cells, luciferase, cherry-pick, dose response (AID 687027); format: functional, cell-based;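 further: luciferase reporter driven by Pax8 target thyroperoxidase promoter measured by SteadyGlo luminescence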
Sequence of Paired box protein Pax-8 (Q06710 whole entry): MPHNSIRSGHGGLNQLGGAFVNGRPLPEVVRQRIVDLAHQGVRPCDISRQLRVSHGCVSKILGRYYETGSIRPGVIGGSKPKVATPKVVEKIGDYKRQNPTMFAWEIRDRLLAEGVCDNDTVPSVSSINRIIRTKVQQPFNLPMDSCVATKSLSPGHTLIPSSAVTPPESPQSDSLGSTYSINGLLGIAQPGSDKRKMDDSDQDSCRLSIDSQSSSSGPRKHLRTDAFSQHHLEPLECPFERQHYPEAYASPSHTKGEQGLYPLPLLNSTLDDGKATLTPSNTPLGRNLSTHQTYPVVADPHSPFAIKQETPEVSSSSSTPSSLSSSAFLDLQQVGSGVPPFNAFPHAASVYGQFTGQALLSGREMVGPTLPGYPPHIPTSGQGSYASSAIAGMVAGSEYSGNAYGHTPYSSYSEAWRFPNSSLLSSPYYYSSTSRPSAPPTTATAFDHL

T4 sequence (P11712 whole entry): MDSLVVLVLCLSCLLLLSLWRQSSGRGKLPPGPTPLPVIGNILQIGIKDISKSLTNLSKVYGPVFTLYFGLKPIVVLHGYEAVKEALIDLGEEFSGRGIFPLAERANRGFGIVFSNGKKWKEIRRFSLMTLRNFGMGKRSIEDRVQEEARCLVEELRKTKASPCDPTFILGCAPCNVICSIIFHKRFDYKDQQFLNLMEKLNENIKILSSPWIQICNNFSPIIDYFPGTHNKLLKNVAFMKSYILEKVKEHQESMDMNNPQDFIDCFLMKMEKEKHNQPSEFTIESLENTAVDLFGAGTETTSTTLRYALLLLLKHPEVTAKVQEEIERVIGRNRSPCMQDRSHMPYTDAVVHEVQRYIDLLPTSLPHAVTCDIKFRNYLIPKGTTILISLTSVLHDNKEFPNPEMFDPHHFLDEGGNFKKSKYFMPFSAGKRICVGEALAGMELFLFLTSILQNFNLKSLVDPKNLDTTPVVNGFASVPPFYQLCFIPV
Sequence of Cytochrome P450 3A4 (P08684 whole entry): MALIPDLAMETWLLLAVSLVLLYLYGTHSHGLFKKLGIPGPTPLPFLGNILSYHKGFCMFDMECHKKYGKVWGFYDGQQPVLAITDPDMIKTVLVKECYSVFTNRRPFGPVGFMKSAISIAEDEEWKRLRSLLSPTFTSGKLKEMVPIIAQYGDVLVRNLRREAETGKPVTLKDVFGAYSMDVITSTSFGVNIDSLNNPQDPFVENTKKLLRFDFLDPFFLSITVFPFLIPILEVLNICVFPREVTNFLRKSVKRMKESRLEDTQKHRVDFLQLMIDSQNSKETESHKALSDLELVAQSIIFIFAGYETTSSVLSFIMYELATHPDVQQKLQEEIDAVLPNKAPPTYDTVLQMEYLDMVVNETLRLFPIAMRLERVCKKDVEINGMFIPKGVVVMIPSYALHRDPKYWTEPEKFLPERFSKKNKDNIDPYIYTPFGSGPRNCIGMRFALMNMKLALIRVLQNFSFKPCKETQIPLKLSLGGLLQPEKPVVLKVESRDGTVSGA
T1 sequence (Q9HC16 whole entry): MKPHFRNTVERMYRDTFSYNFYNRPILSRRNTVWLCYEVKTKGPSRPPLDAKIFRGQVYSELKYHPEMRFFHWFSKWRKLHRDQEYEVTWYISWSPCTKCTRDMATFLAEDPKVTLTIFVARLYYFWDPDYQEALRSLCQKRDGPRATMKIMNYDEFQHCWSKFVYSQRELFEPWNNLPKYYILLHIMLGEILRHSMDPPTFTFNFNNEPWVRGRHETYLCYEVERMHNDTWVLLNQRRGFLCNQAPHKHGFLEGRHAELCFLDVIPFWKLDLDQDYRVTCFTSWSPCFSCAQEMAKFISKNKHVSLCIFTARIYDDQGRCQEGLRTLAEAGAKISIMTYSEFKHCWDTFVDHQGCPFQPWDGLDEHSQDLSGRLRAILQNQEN
Sequence of Cytochrome P450 2C19 (P33261 whole entry): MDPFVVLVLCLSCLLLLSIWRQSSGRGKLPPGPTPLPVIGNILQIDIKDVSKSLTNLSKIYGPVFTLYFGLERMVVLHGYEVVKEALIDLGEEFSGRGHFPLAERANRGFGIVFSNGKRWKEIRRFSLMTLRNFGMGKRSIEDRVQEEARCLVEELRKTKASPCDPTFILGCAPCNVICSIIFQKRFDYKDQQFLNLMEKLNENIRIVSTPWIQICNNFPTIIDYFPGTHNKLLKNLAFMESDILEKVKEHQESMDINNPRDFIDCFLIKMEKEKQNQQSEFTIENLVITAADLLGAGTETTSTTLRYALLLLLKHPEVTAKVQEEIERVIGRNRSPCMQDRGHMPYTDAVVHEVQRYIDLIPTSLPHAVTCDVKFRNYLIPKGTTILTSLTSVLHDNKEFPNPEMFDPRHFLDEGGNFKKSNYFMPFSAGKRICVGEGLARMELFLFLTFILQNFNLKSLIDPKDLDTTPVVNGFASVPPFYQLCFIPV
Sequence of Induced myeloid leukemia cell differentiation protein Mcl-1 (Q07820 whole entry): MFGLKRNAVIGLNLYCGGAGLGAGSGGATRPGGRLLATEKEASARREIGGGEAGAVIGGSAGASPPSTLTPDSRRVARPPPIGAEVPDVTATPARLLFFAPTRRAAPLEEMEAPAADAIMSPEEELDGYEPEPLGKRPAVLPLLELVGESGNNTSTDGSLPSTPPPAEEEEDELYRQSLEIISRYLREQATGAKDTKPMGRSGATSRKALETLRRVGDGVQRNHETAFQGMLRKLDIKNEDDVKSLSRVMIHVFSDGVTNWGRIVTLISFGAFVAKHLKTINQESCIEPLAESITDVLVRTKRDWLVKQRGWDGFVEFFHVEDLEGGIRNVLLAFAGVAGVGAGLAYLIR
Sequence of Glyceraldehyde-3-phosphate dehydrogenase (P04406 whole entry): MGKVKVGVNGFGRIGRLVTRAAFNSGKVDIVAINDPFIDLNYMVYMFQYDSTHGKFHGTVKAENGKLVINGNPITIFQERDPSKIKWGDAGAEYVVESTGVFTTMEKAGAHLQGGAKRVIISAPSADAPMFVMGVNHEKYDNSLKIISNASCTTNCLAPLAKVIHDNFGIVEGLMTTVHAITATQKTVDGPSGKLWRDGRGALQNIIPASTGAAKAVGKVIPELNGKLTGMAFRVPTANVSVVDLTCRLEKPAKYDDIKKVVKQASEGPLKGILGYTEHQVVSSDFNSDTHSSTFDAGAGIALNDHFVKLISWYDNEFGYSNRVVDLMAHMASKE
Sequence of DNA dC->dU-editing enzyme APOBEC-3A (P31941 whole entry): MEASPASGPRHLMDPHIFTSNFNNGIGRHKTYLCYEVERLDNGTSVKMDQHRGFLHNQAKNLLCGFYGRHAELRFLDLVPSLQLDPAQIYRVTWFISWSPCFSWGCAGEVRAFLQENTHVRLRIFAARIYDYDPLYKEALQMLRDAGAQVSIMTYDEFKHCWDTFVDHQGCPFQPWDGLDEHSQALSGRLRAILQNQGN

With `CC(C)Cn1c(S)nnc1-c1ccc(F)cc1` the IC50 [1] was 9.54 µM (active).

For `O=C(NOCc1ccccc1)c1ccc(Cl)cc1Cl`, the AC50 [2] was 3.33 µM (active).

With `O=S(=O)(Nc1ccccc1Cl)c1cccc2nsnc12` the IC50 [3] was 11.2 µM (active) and the AC50 [4] was 25.9 µM (active).

With `CN1C(=O)NC(c2ccc(O)cc2)C(C(=O)c2cccs2)C1(O)C(F)(F)F` (stereo not drawn) the AC50 ([5]; read-out: AC50) was 15.8 µM (inconclusive), the AC50 [6] was 39.8 µM (inconclusive) and the EC50 [7] was > 50 µM (active). The AC50 [8] was 25.1 µM (inconclusive).

For `Cc1ccc(NC(=O)c2sccc2C)cc1[N+](=O)[O-]`, the EC50 [7] was > 50 µM (active).

For `C=CCc1cccc2cc(C(=O)Nc3cccc(C(=O)O)c3)c(=O)oc12`, the IC50 [9] was > 100 µM (not active).

In the case of `CCCCC(=O)NC(=S)Nc1cccc(NC(=O)CC)c1`, the AC50 [10] is reported as 15.8 µM (inconclusive), the AC50 [11] is reported as “inconclusive” and the AC50 [8] is reported as 20 µM (inconclusive).

In the case of `CCN1CCN(CC(=O)c2cc(OC)c(OC)c(OC)c2)CC1`, the IC50 [12] is reported as > 50 µM (not active).

In the case of `COc1cc(C2C3=C(O)c4ccccc4C3=Nc3nc(N)nc(O)c32)ccc1O` (stereo not drawn), the IC50 [13] is reported as 2.76 µM (active).

In the case of `CC(C[N+](C)(C)C)OC(=O)C1(c2ccccc2)CCCC1` (stereo not drawn), the IC50 [14] is reported as 2.56 µM (active) and the IC50 [15] is reported as 3.58 µM (active).

With `CN(C)c1ccc(C=Cc2ccnc3c(O)cccc23)cc1` the AC50 [16] was 52.7 µM (active), the AC50 [17] was 1.43 µM (active) and the AC50 [18] was 2.57 µM (active). The AC50 [2] was 10 µM (active).

In the case of `Cc1ccc(S(=O)(=O)Nc2csc(C)c2C(=O)O)cc1`, the IC50 [3] is reported as 3.94 µM (active) and the AC50 [4] is reported as 4.99 µM (active).

For `COc1ccc(CN2[C@H](CO)[C@H]3c4ccccc4NC[C@H]32)cc1`, the AC50 [19] was > 70 µM (inactive) and the AC50 [20] was 11.2 µM (active).

With `CCN1C[C@]2(COC(=O)c3ccccc3N3C(=O)C[C@H](C)C3=O)CC[C@H](OC)[C@]34[C@@H]5C[C@@H]6[C@H](OC)[C@H]5[C@](O)(C[C@@H]6OC)C(O)([C@@H]13)[C@@H](OC)[C@@H]24` the AC50 [10] was 39.8 µM (inconclusive) and the AC50 [11] was “inconclusive”.

With `O=[N+]([O-])c1ccc(N2CCNCC2)cc1NCc1cccnc1` the EC50 [7] was > 50 µM (active).

In the case of `CO[C@H]1CN(C)C(=O)c2ccc(NS(=O)(=O)c3cccc(Cl)c3)cc2OC[C@@H](C)NC[C@H]1C`, the AC50 [4] is reported as 19.7 µM (active).

For `CCCCN1CCC(COC(=O)c2cc(Cl)c(N)c3c2OCCO3)CC1`, the AC50 [11] was “inconclusive” and the AC50 [8] was 3.16 µM (inconclusive).

For `Cn1cnc(CCN)c1` [N-METHYLHISTAMINE], the AC50 [5] was “inconclusive” and the AC50 [11] was “inconclusive”.
